Values after ≈ are worked out from the molar mass of the structure shown.
Assays:
[1] = system: K562; test: In vitro concentration required to inhibit K562 cells; type: functional, cell-based; details: Homo sapiens
[2] = system: MAC26; test: In vitro concentration required to inhibit MAC 26 cells; type: functional, cell-based; details: Mus musculus
[3] = system: HRT-18 cell line; test: In vitro concentration required to inhibit HRT18 cells; type: functional, cell-based; details: Homo sapiens
[4] = system: HT-29; test: In vitro concentration required to inhibit HT-29 cells; type: functional, cell-based; details: Homo sapiens
[5] = system: Mus musculus; test: In vivo antitumor activity in murine tumors at a dose of 200 mg/Kg; type: functional
[6] = system: DLD-1; test: In vitro concentration required to inhibit DLD1 cells; type: functional, cell-based; details: Homo sapiens
[7] = system: HCLO cell line; test: In vitro concentration required to inhibit HCLO cells; type: functional, cell-based; details: Homo sapiens
[8] = system: HCT-8; test: In vitro concentration required to inhibit HCT18 cells; type: functional, cell-based; details: Homo sapiens
[9] = system: MAC15A; test: In vitro concentration required to inhibit MAC 15 A cells; type: functional, cell-based; details: Mus musculus
[10] = system: MAC16; test: In vitro concentration required to inhibit MAC 16 cells; type: functional, cell-based; details: Mus musculus

- IC50 [1]: 310 µg/mL (≈ 1110 µM)
- IC50 [2]: 208 µg/mL (≈ 742 µM)
- IC50 [3]: 95 µg/mL (≈ 339 µM)
- IC50 [4]: 390 µg/mL (≈ 1390 µM)
- IC50 [6]: > 500 µg/mL
- IC50 [7]: > 500 µg/mL
- IC50 [8]: 245 µg/mL (≈ 874 µM)
- IC50 [9]: 150 µg/mL (≈ 535 µM)
- IC50 [10]: 180 µg/mL (≈ 642 µM)
SMILES: O=C(O)Cc1cccc2c(=O)cc(-c3ccccc3)oc12 [MITOFLAXONE]
- inhibition in vivo at 200 mg/kg [5]: 83%

From ChEMBL document CHEMBL1127979, “Synthesis and anti-tumour activity of 6-methyl derivatives of flavone-8-acetic acid (FAA)” (Bioorg Med Chem Lett, 1994)
